This test addresses PD-1/PD-L1 (Homo sapiens, UniProt Q9NZQ7). Kind of test: TR-FRET PD-1/PD-L1 binding inhibition at the molecular level (free proteins). The note with it: Tag1-PD-L1 and Tag2-PD-1 proteins, twelve concentrations from 200 nM, 2 hours at room temperature, read-out: FRET assay (IC50). In short, it runs like this: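 HTRF read-out at 665/620 nm after 2 h at room temperature. Detection used anti-Tag1 Eu cryptate plus anti-Tag2 XL665 antibodies. Tagged PD-L1 and PD-1 proteins were pre-mixed with compound across twelve […] 1:2 dilutions starting at 200 nM.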
(TR-FRET usually uses a lanthanide donor and a delayed reading to cut background.)

PD-1/PD-L1, sequence (Q9NZQ7 19-238 limits assumed): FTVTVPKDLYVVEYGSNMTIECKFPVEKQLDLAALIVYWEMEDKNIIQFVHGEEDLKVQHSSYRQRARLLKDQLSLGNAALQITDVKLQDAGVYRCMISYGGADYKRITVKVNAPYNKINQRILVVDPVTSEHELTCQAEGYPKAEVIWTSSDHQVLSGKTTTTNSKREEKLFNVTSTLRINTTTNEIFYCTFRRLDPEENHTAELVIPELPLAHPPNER

Usually IC50 stands for the concentration needed to halve the response being measured. `COc1cc(-c2cccc(-c3cccc(NC(=O)c4cc5n(n4)CCC[C@H]5NCC(=O)O)c3Cl)c2Cl)cc(F)c1CNC[C@@H]1CCC(=O)N1` [Compound 250, 2-(((R)-2-((2,2'-dichloro-3"-fluoro-5"-methoxy-4"-(((((S)-5-oxopyrrolidin-2-yl)methyl)amino)methyl)-[1,1':3',1 "-terphenyl]-3-yl)carbamoyl)-4,5,6,7-tetrahydropyrazolo[1,5-a]pyridin-4-yl)amino)acetic acid]: the IC50 fell in the range of 10 to 100 nM.
As to `Cc1c(NC(=O)c2cc3n(n2)CCC[C@@H]3NCCO)cccc1-c1cccc(NC(=O)c2cc3n(n2)CCC[C@@H]3NCCO)c1C` [Compound 253, (4S,4'S)-N,N'-(2,2'-dimethyl-[1,1'-biphenyl]-3,3'-diyl)bis(4-((2-hydroxyethyl)amino)-4,5,6,7-tetrahydropyrazolo[1,5-a]pyridine-2-carboxamide)], the IC50 is under 10 nM.
Turning to `Cc1nc(Nc2cccc(-c3cccc(NC(=O)c4cc5n(n4)CCC[C@@H]5N4CCC(C(=O)O)CC4)c3Cl)c2Cl)c2ncccc2n1` [Compound 254, (S)-1-(2-((2,2'-dichloro-3'-((2-methylpyrido[3,2-d]pyrimidin-4-yl)amino)-[1,1'-biphenyl]-3-yl)carbamoyl)-4,5,6,7-tetrahydropyrazolo[1,5-a]pyridin-4-yl)piperidine-4-carboxylic acid], the IC50 is 10 to 100 nM.
As to `Cc1nc(Nc2cccc(-c3cccc(NC(=O)c4cc5n(n4)CCC[C@H]5N4CCC(C(=O)O)CC4)c3Cl)c2Cl)c2ncccc2n1` [Compound 255, (R)-1-(2-((2,2'-dichloro-3'-((2-methylpyrido[3,2-d]pyrimidin-4-yl)amino)-[1,1'-biphenyl]-3-yl)carbamoyl)-4,5,6,7-tetrahydropyrazolo[1,5-a]pyridin-4-yl)piperidine-4-carboxylic acid], the IC50 lay in the range of 10 to 100 nM.
For `O=C(Nc1cccc(-c2cccc(Nc3nccc4nccnc34)c2Cl)c1Cl)c1cc2n(n1)CCC[C@H]2N1CCC(C(=O)O)CC1` [Compound 256, (R)-1-(2-((2,2'-dichloro-3'-(pyrido[3,4-b]pyrazin-5-ylamino)-[1,1'-biphenyl]-3-yl)carbamoyl)-4,5,6,7-tetrahydropyrazolo[1,5-a]pyridin-4-yl)piperidine-4-carboxylic acid], the IC50 lay in the range of 10 to 100 nM.
The value for `O=C(Nc1cccc(-c2cccc(Nc3nccc4nccnc34)c2Cl)c1Cl)c1cc2n(n1)CCC[C@@H]2N1CCC(C(=O)O)CC1` [Compound 257, (S)-1-(2-((2,2'-dichloro-3'-(pyrido[3,4-b]pyrazin-5-ylamino)-[1,1'-biphenyl]-3-yl)carbamoyl)-4,5,6,7-tetrahydropyrazolo[1,5-a]pyridin-4-yl)piperidine-4-carboxylic acid] was 10 to 100 nM.
Turning to `CC(C)(N[C@H]1CCCn2nc(C(=O)Nc3cccc(-c4cccc(Nc5nc(C(F)F)nc6cc(CN7CC[C@@H](O)C7)cnc56)c4Cl)c3Cl)cc21)C(=O)O` [Compound 258, 2-(((S)-2-((2,2'-dichloro-3'-((2-(difluoromethyl)-7-(((R)-3-hydroxypyrrolidin-1-yl)methyl)pyrido[3,2-d]pyrimidin-4-yl)amino)-[1,1'-biphenyl]-3-yl)carbamoyl)-4,5,6,7-tetrahydropyrazolo[1,5-a]pyridin-4-yl)amino)-2-methylpropanoic acid], the IC50 is 10 to 100 nM.
Consider `CC(C)(N[C@@H]1CCCn2nc(C(=O)Nc3cccc(-c4cccc(Nc5nc(C(F)F)nc6cc(CN7CC[C@@H](O)C7)cnc56)c4Cl)c3Cl)cc21)C(=O)O` [Compound 259, 2-(((R)-2-((2,2'-dichloro-3'-((2-(difluoromethyl)-7-(((R)-3-hydroxypyrrolidin-1-yl)methyl)pyrido[3,2-d]pyrimidin-4-yl)amino)-[1,1'-biphenyl]-3-yl)carbamoyl)-4,5,6,7-tetrahydropyrazolo[1,5-a]pyridin-4-yl)amino)-2-methylpropanoic acid], for which the IC50 lay within 10 to 100 nM.
Then `CC(C)(N[C@@H]1CCCn2nc(C(=O)Nc3cccc(-c4cccc(Nc5nccc6nccnc56)c4Cl)c3Cl)cc21)C(=O)O` [Compound 259-1, (R)-2-((2-((2,2'-dichloro-3'-(pyrido[3,4-b]pyrazin-5-ylamino)-[1,1'-biphenyl]-3-yl)carbamoyl)-4,5,6,7-tetrahydropyrazolo[1,5-a]pyridin-4-yl)amino)-2-methylpropanoic acid], with 10 to 100 nM; and `CC(C)(N[C@H]1CCCn2nc(C(=O)Nc3cccc(-c4cccc(Nc5nccc6nccnc56)c4Cl)c3Cl)cc21)C(=O)O` [Compound 260, (S)-2-((2-((2,2'-dichloro-3'-(pyrido[3,4-b]pyrazin-5-ylamino)-[1,1'-biphenyl]-3-yl)carbamoyl)-4,5,6,7-tetrahydropyrazolo[1,5-a]pyridin-4-yl)amino)-2-methylpropanoic acid], with 10 to 100 nM.
Consider `O=C(Nc1cccc(-c2cccc(Nc3nc(C(F)F)nc4cc(CN5CC[C@@H](O)C5)cnc34)c2Cl)c1Cl)c1cc2n(n1)CCC[C@@H]2N1CC(C(=O)O)C1` [Compound 261, 1-((S)-2-((2,2'-dichloro-3'-((2-(difluoromethyl)-7-(((R)-3-hydroxypyrrolidin-1-yl)methyl)pyrido[3,2-d]pyrimidin-4-yl)amino)-[1,1'-biphenyl]-3-yl)carbamoyl)-4,5,6,7-tetrahydropyrazolo[1,5-a]pyridin-4-yl)azetidine-3-carboxylic acid], for which the IC50 is under 10 nM.
With `O=C(Nc1cccc(-c2cccc(Nc3nccc4nccnc34)c2Cl)c1Cl)c1cc2n(n1)CCC[C@H]2N1CC(C(=O)O)C1` [Compound 263, (R)-1-(2-((2,2'-dichloro-3'-(pyrido[3,4-b]pyrazin-5-ylamino)-[1,1'-biphenyl]-3-yl)carbamoyl)-4,5,6,7-tetrahydropyrazolo[1,5-a]pyridin-4-yl)azetidine-3-carboxylic acid], the IC50 was under 10 nM.
Turning to `O=C(Nc1cccc(-c2cccc(Nc3nccc4nccnc34)c2Cl)c1Cl)c1cc2n(n1)CCC[C@@H]2N1CC(C(=O)O)C1` [Compound 264, (S)-1-(2-((2,2'-dichloro-3'-(pyrido[3,4-b]pyrazin-5-ylamino)-[1,1'-biphenyl]-3-yl)carbamoyl)-4,5,6,7-tetrahydropyrazolo[1,5-a]pyridin-4-yl)azetidine-3-carboxylic acid], the IC50 is under 10 nM.
Turning to `Cc1c(NC(=O)c2ccc(CN3CC[C@@H](O)C3)cn2)cccc1-c1cccc(NC(=O)c2cc3n(n2)CCC[C@@H]3N2CC(C(=O)O)C2)c1C` [Compound 265, 1-((S)-2-((3'-(5-(((R)-3-hydroxypyrrolidin-1-yl)methyl)picolinamido)-2,2'-dimethyl-[1,1'-biphenyl]-3-yl)carbamoyl)-4,5,6,7-tetrahydropyrazolo[1,5-a]pyridin-4-yl)azetidine-3-carboxylic acid], the IC50 is under 10 nM.
As for `Cc1c(NC(=O)c2cc3n(n2)CCC[C@@H]3N2CCC(C(=O)O)CC2)cccc1-c1cccc(Nc2nc(C(F)F)nc3cc(CN4CC[C@@H](O)C4)cnc23)c1C` [Compound 267, 1-((S)-2-((3'-((2-(difluoromethyl)-7-(((R)-3-hydroxypyrrolidin-1-yl)methyl)pyrido[3,2-d]pyrimidin-4-yl)amino)-2,2'-dimethyl-[1,1'-biphenyl]-3-yl)carbamoyl)-4,5,6,7-tetrahydropyrazolo[1,5-a]pyridin-4-yl)piperidine-4-carboxylic acid], the IC50 is under 10 nM.
`Cc1c(NC(=O)c2cc3n(n2)CCC[C@H]3N2CCC(C(=O)O)CC2)cccc1-c1cccc(Nc2nc(C(F)F)nc3cc(CN4CC[C@@H](O)C4)cnc23)c1C` [Compound 268, 1-((R)-2-((3'-((2-(difluoromethyl)-7-(((R)-3-hydroxypyrrolidin-1-yl)methyl)pyrido[3,2-d]pyrimidin-4-yl)amino)-2,2'-dimethyl-[1,1'-biphenyl]-3-yl)carbamoyl)-4,5,6,7-tetrahydropyrazolo[1,5-a]pyridin-4-yl)piperidine-4-carboxylic acid]: the IC50 is 10 to 100 nM.
Consider `O=C(Nc1cccc(-c2cccc(Nc3nc(C(F)F)nc4cc(CN5CC(F)C5)cnc34)c2Cl)c1Cl)c1cc2n(n1)CCC[C@@H]2N1CCC(O)CC1` [Compound 269, (S)-N-(2,2'-dichloro-3'-((2-(difluoromethyl)-7-((3-fluoroazetidin-1-yl)methyl)pyrido[3,2-d]pyrimidin-4-yl)amino)-[1,1'-biphenyl]-3-yl)-4-(4-hydroxypiperidin-1-yl)-4,5,6,7-tetrahydropyrazolo[1,5-a]pyridine-2-carboxamide], for which the IC50 lay within 10 to 100 nM.
Regarding `O=C(Nc1cccc(-c2cccc(Nc3nc(C(F)F)nc4cc(CN5CC(F)C5)cnc34)c2Cl)c1Cl)c1cc2n(n1)CCC[C@H]2N1CCC(O)CC1` [Compound 270, (R)-N-(2,2'-dichloro-3'-((2-(difluoromethyl)-7-((3-fluoroazetidin-1-yl)methyl)pyrido[3,2-d]pyrimidin-4-yl)amino)-[1,1'-biphenyl]-3-yl)-4-(4-hydroxypiperidin-1-yl)-4,5,6,7-tetrahydropyrazolo[1,5-a]pyridine-2-carboxamide], the IC50 fell in the range of 10 to 100 nM.
For `O=C(Nc1cccc(-c2cccc(Nc3nc(C(F)F)nc4cc(CN5CC(F)(F)C5)cnc34)c2Cl)c1Cl)c1cc2n(n1)CCC[C@@H]2N1CCC(O)CC1` [Compound 271, (S)-N-(2,2'-dichloro-3'-((7-((3,3-difluoroazetidin-1-yl)methyl)-2-(difluoromethyl)pyrido[3,2-d]pyrimidin-4-yl)amino)-[1,1'-biphenyl]-3-yl)-4-(4-hydroxypiperidin-1-yl)-4,5,6,7-tetrahydropyrazolo[1,5-a]pyridine-2-carboxamide], the IC50 is 10 to 100 nM.
In the case of `O=C(Nc1cccc(-c2cccc(Nc3nc(C(F)F)nc4cc(CN5CC(F)(F)C5)cnc34)c2Cl)c1Cl)c1cc2n(n1)CCC[C@H]2N1CCC(O)CC1` [Compound 272, (R)-N-(2,2'-dichloro-3'-((7-((3,3-difluoroazetidin-1-yl)methyl)-2-(difluoromethyl)pyrido[3,2-d]pyrimidin-4-yl)amino)-[1,1'-biphenyl]-3-yl)-4-(4-hydroxypiperidin-1-yl)-4,5,6,7-tetrahydropyrazolo[1,5-a]pyridine-2-carboxamide], the IC50 fell in the range of 10 to 100 nM.

Values taken from patent publication EP4755888A1 (ILAb Co., Ltd., priority 2023, dated 2025).
